Like-named read-outs stand apart in the source and are kept apart here.
What was measured:
JAK2 = molecular target: T1, JAK2 (Homo sapiens, UniProt O60674); assay: Kinobeads assay, JAK2 (competition binding in mixed Molt4/Ramos cell lysate, dot blot detection); settings: read-out: JAK2 Band (Kinobeads assay potency, IC50)
T1 construct: endogenous in cells; host or cells: Molt4 (ATCC CRL-1582) and Ramos (ATCC CRL-1596), mixed lysate 1:2
Procedure: (§1) The compounds of the present invention as described in the previous examples were tested in a Kinobeads™ assay as described for ZAP-70 (WO-A 2007/137867). Briefly, test compounds (at various concentrations) and the affinity matrix with the immobilized aminopyrido-pyrimidine ligand 24 were added to cell lysate aliquots and allowed to bind to the proteins in 10 the lysate sample. After the incubation time the beads with captured proteins were separated from the lysate. Bound proteins were then eluted and the presence of TYK2 and JAK2 was detected and quantified using specific antibodies in a dot blot procedure and the Odyssey infrared detection system. Dose response curves for individual kinases were generated and IC50 values calculated. Kinobeads™ assays have been previously described (WO-A 2007/137867; WO-A 2006/134056).
(§2) The affinity matrix was washed two times with 15 mL of 1×DP buffer containing 0.2% NP40 (IGEPAL® CA-630, Sigma, #13021) and then resuspended in 1×DP buffer containing 0.2% NP40 (3% beads slurry). 5×DP buffer: 250 mM Tris-HCl pH 7.4, 25% Glycerol, 7.5 mM MgCl2, 750 mM NaCl, 5 mM Na3VO4; filter the 5×DP buffer through a 0.22 μm filter and store in aliquots at −80° C. The 5×DP buffer is diluted with H2O to 1×DP buffer containing 1 mM DTT and 25 mM NaF.
(§3) Stock solutions of test compounds were prepared in DMSO. In a 96 well plate 30 μL solution of diluted test compounds at 5 mM in DMSO were prepared. Starting with this solution a 1:3 dilution series (9 steps) was prepared. For control experiments (no test compound) a buffer containing 2% DMSO was used.
(§4) Molt4 cells (ATCC catalogue number CRL-1582) and Ramos cells (ATCC catalogue number CRL-1596) were grown in 1 L Spinner flasks (Integra Biosciences, #182101) in suspension in RPMI 1640 medium (Invitrogen, #21875-034) supplemented with 10% Fetal Bovine Serum (Invitrogen) at a density between 0.15×10^6 and 1.2×10^6 cells/mL. Cells were harvested by centrifugation, washed once with 1×PBS buffer (Invitrogen, #14190-094) and cell pellets were frozen in liquid nitrogen and subsequently stored at −80° C. Cells were homogenized in a Potter S homogenizer in lysis buffer: 50 mM Tris-HCl, 0.8% NP40, 5% glycerol, 150 mM NaCl, 1.5 mM MgCl2, 25 mM NaF, 1 mM sodium vanadate, 1 mM DTT, pH 7.5. One complete EDTA-free tablet (protease inhibitor cocktail, Roche Diagnostics, 1873580) per 25 mL buffer was added. The material was dounced 10 times using a mechanized POTTER S, transferred to 50 mL falcon tubes, incubated for 30 minutes on ice and spun down for 10 minutes at 20,000 g at 4° C. (10,000 rpm in Sorvall SLA600, precooled). The supernatant was transferred to an ultracentrifuge (UZ)-polycarbonate tube (Beckmann, 355654) and spun for 1 hour at 100.000 g at 4° C. (33.500 rpm in Ti50.2, precooled). The supernatant was transferred again to a fresh 50 mL falcon tube, the protein concentration was determined by a Bradford assay (BioRad) and samples containing 50 mg of protein per aliquot were prepared. The samples were immediately used for experiments or frozen in liquid nitrogen and stored frozen at −80° C.
(§5) Cell lysate (approximately 50 mg protein per plate) was thawed in a water bath at room temperature and then stored on ice. To the thawed cell lysate 1×DP 0.8% NP40 buffer containing protease inhibitors (1 tablet for 25 mL buffer; EDTA-free protease inhibitor cocktail; Roche Diagnostics 1873580) was added in order to reach a final protein concentration of 10 mg/mL total protein. The diluted cell lysate was stored on ice. Mixed Molt4/Ramos lysate was prepared by combining one volume of Molt4 lysate and two volumes of Ramos lysate (ratio 1:2).
(§6) To a 96 well filter plate (Multiscreen HTS, BV Filter Plates, Millipore #MSBVN1250) were added per well: 100 μL affinity matrix (3% beads slurry), 3 μL of compound solution, and 50 μL of diluted lysate. Plates were sealed and incubated for 3 hours in a cold room on a plate shaker (Heidolph tiramax 1000) at 750 rpm. […]

TYK2 = molecular target: T2, TYK2 (Homo sapiens, UniProt P29597); assay: Kinobeads assay, TYK2 (competition binding in mixed Molt4/Ramos cell lysate, dot blot detection)
T2 construct: endogenous in cells; host or cells: Molt4 (ATCC CRL-1582) and Ramos (ATCC CRL-1596), mixed lysate 1:2
T2 sequence (P29597 whole entry): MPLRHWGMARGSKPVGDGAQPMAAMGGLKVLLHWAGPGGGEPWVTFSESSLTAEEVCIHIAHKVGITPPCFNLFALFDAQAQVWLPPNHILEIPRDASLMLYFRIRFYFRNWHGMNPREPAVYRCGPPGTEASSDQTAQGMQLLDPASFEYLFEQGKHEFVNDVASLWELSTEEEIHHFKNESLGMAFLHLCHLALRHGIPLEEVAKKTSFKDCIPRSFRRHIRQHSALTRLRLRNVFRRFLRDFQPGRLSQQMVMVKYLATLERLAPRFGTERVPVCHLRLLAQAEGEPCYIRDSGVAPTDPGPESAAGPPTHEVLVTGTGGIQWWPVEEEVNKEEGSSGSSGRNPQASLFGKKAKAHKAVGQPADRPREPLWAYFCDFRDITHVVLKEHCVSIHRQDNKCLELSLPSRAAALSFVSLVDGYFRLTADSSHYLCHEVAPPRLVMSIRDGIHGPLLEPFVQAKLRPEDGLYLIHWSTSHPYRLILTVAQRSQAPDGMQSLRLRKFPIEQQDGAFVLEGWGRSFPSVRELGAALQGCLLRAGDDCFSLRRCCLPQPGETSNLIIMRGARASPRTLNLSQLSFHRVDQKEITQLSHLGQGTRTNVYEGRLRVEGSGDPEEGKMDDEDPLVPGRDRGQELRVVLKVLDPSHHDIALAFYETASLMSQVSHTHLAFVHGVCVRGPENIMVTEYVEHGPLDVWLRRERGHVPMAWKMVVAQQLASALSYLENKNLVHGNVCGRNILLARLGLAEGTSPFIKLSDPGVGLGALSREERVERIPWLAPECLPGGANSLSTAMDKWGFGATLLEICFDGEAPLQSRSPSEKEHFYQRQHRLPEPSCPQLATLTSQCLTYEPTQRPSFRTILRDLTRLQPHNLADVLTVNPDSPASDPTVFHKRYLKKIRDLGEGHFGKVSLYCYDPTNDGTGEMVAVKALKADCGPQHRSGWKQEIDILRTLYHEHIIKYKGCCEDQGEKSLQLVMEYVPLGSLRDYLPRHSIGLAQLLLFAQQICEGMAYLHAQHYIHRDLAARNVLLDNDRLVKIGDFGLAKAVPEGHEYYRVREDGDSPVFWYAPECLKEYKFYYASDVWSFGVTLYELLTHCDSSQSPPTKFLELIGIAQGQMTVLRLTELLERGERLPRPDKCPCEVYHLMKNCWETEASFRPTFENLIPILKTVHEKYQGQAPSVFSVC
Procedure: as §1, §2, §3, §4, §5, §6

[1] = Kinobeads assay, Molt4/Ramos lysate, read-out: TYK2 Band (Kinobeads assay potency, IC50)

T1 sequence (O60674 whole entry): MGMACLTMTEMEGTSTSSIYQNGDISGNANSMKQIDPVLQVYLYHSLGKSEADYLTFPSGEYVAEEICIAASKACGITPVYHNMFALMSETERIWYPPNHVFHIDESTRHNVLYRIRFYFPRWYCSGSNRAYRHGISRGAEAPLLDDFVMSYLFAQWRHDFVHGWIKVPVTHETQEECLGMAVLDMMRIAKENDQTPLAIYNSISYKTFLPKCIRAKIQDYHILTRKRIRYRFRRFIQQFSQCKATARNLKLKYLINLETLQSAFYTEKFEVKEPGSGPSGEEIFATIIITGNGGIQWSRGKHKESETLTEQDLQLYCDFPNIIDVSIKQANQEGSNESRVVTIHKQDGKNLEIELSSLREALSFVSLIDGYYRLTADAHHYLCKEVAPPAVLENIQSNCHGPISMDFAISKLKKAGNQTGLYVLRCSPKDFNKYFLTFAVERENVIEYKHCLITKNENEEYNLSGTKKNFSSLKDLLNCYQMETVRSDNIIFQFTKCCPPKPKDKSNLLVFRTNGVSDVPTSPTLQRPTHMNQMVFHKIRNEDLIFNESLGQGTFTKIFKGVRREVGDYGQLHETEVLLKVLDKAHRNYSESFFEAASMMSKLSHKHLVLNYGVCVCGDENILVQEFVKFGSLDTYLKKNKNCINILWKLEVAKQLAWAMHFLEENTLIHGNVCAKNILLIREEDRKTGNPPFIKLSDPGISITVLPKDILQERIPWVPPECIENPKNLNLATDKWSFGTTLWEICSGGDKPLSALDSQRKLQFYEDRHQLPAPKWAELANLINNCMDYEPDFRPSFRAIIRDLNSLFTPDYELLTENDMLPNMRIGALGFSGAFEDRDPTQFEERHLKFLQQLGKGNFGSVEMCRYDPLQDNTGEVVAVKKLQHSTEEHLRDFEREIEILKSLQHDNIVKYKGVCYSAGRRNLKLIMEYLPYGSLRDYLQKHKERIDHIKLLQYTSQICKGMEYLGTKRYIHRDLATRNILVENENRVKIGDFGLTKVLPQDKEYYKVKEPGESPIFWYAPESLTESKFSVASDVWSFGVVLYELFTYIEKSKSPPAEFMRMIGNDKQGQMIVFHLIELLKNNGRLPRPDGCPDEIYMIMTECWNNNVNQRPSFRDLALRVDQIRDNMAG

SMILES | IC50 (JAK2) [µM] | IC50 (TYK2; [1]) [µM] | IC50 (TYK2; read-out: TYK2 IC50) [µM]
Clc1cnc(Nc2cn[nH]c2)nc1NCc1ccccc1 [Example I-201] | 1 to 10 | 0.1 to 1 | 
Fc1cc(F)c(CNc2nc(Nc3cn[nH]c3)ncc2Cl)c(F)c1 [Example I-372] | 1 to 10 | 0.01 to 0.1 | 
CS(=O)(=O)c1ccc(F)c(CNc2nc(Nc3cnn(CC(N)=O)c3)ncc2Cl)c1 [Example I-100] | 0.1 to 1 | 0.01 to 0.1 | 
C[C@H]1COCCN1C(=O)Cn1cc(Nc2ncc(F)c(NCc3c(F)cc(F)cc3F)n2)cn1 [Example I-73] | 1 to 10 | ≤ 0.01 | 
C[C@@H](CO)NC(=O)Cn1cc(Nc2nccc(NCc3c(Cl)ccc(Cl)c3F)n2)cn1 [Example I-121] | 0.1 to 1 | ≤ 0.01 | 
CS(=O)(=O)NCc1cccc(CNc2nc(Nc3cnn(CC(=O)N4CCC[C@@H]4C#N)c3)ncc2Cl)c1 [Example I-399] | 1 to 10 | 0.1 to 1 | 
O=C(Cn1cc(Nc2ncc(Cl)c(NCc3ccccc3)n2)cn1)N1CC2(COC2)C1 [Example I-236] | 1 to 10 | 0.1 to 1 | 
O=C(Cn1cc(Nc2nccc(NCc3c(F)cc(F)cc3F)n2)cn1)N[C@@H]1CCOC1 [Example I-137] | 1 to 10 | 0.01 to 0.1 | 
CN(C)C(=O)Cn1cc(Nc2ncc(F)c(NCc3c(Cl)cccc3Cl)n2)cn1 [Example I-251] | 1 to 10 | 0.01 to 0.1 | 
CC(O)Cn1cc(Nc2ncc(Cl)c(NCc3c(F)cccc3F)n2)cn1 (stereo not drawn) [Example I-209] | 1 to 10 | 0.01 to 0.1 | 
Fc1cccc(CNc2nc(Nc3cn[nH]c3)ncc2Cl)c1 [Example I-370] | 0.1 to 1 | 0.1 to 1 | 
CC(C)NC(=O)Cn1cc(Nc2nccc(NCc3c(F)ccc(F)c3F)n2)cn1 [Example I-63] | 1 to 10 | ≤ 0.01 | 
OCCn1cc(Nc2ncc(Cl)c(NCc3ccccc3F)n2)cn1 [Example I-174] | 0.1 to 1 | 0.01 to 0.1 | 
Cc1cnc(Nc2cnn(C)c2)nc1NCc1c(F)cc(S(N)(=O)=O)cc1F [Example I-43] | 0.1 to 1 | 0.01 to 0.1 | 
O=C(Cn1cc(Nc2ncc(Cl)c(NCc3ccccc3)n2)cn1)N1CC2COCC2C1 (stereo not drawn) [Example I-188] | 1 to 10 | 0.01 to 0.1 | 
O=C(Cn1cc(Nc2ncc(Cl)c(NCc3cccc(F)c3F)n2)cn1)N1CCOCC1 [Example I-178] | 0.1 to 1 | 0.01 to 0.1 | 
COc1ccc(F)c(CNc2nc(Nc3cnn(CC(=O)NCC(C)C)c3)ncc2Cl)c1F [Example I-428] | 1 to 10 | 0.01 to 0.1 | 

SMILES | IC50 (JAK2) [µM] | IC50 (TYK2; [1]) [µM] | IC50 (TYK2; read-out: TYK2 IC50) [µM]
Cn1cc(Nc2nccc(NCc3c(Cl)ccc(Cl)c3F)n2)cn1 [Example I-60] | 0.1 to 1 | 0.01 to 0.1 | 
NC(=O)Cn1cc(Nc2ncc(Cl)c(NCc3cccnc3O)n2)cn1 [Example I-405] | 1 to 10 | 1 to 10 | 
Cn1cc(Nc2ncc(Cl)c(NCc3ncccc3F)n2)cn1 [Example I-260] | 1 to 10 | 0.1 to 1 | 
Fc1ccc(F)c(CNc2nc(Nc3cnn(CC(F)F)c3)ncc2Cl)c1F [Example I-336] | 0.1 to 1 | 0.01 to 0.1 | 
OCCn1cc(Nc2ncc(Cl)c(NCc3cccc(OC(F)F)c3)n2)cn1 [Example I-322] | 1 to 10 | 0.01 to 0.1 | 
Cn1cc(Nc2ncc(Cl)c(NCc3c(F)cccc3C(F)(F)F)n2)cn1 [Example I-118] | 1 to 10 | 0.01 to 0.1 | 
Cc1cnc(Nc2cnn(CCO)c2)nc1NCc1c(F)cc(F)cc1F [Example I-303] | 0.1 to 1 | 0.01 to 0.1 | 
CC(C)NC(=O)Cn1cc(Nc2ncc(F)c(NCc3c(F)cc(F)cc3F)n2)cn1 [Example I-38] | 1 to 10 | ≤ 0.01 | < 0.1
CNC(=O)Cn1cc(Nc2ncc(Cl)c(NCc3c(F)cc(F)cc3F)n2)cn1 [Example I-388] | 1 to 10 | 0.01 to 0.1 | 
CNC(=O)Cn1cc(Nc2ncc(F)c(NCc3c(Cl)cccc3Cl)n2)cn1 [Example I-329] | 1 to 10 | 0.01 to 0.1 | 
CS(=O)(=O)c1ccc(F)cc1CNc1nc(Nc2cn[nH]c2)ncc1F [Example I-486] | 0.1 to 1 | 0.1 to 1 | 
COc1cc(F)c(CNc2nc(Nc3cnn(CC(=O)N4CCOCC4)c3)ncc2C)c(F)c1 [Example I-29] | 1 to 10 | ≤ 0.01 | 
CC(C)NC(=O)Cn1cc(Nc2nccc(NCc3c(Cl)cccc3Cl)n2)cn1 [Example I-76] | > 10 | 0.01 to 0.1 | 
C[C@H](C(N)=O)n1cc(Nc2ncc(Cl)c(NCc3ccccc3)n2)cn1 [Example I-290] | 1 to 10 | 0.1 to 1 | 
O=C(Cn1cc(Nc2ncc(F)c(NCc3c(F)cc(F)cc3F)n2)cn1)NC1CCC1 [Example I-308] | > 10 | 0.01 to 0.1 | 
Cn1cc(Nc2ncc(Cl)c(NCc3cccc(S(N)(=O)=O)c3)n2)cn1 [Example I-198] | 1 to 10 | 0.1 to 1 | 

Further lines, results first:

IC50 (JAK2) [µM] | IC50 (TYK2; [1]) [µM] | IC50 (TYK2; read-out: TYK2 IC50) [µM] | SMILES
1 to 10 | 0.1 to 1 |  | OCCn1cc(Nc2ncc(Cl)c(NCc3ccccc3CO)n2)cn1 [Example I-357]
1 to 10 | 0.01 to 0.1 |  | CS(=O)(=O)c1ccc(F)c(CNc2nc(Nc3cn[nH]c3)ncc2F)c1 [Example I-114]
> 10 | 0.1 to 1 |  | Cn1cc(Nc2nccc(NCc3c(F)cccc3F)n2)cn1 [Example I-312]
> 10 | 0.01 to 0.1 |  | CC(C)N(C)C(=O)Cn1cc(Nc2ncc(F)c(NCc3cccc(OC(F)F)c3)n2)cn1 [Example I-56]
1 to 10 | 1 to 10 |  | Cn1ncnc1Cn1cc(Nc2ncc(Cl)c(NCc3ccccc3)n2)cn1 [Example I-250]
1 to 10 | 0.1 to 1 |  | Cn1ccnc1Cn1cc(Nc2ncc(Cl)c(NCc3ccccc3)n2)cn1 [Example I-248]
1 to 10 | 0.1 to 1 |  | O=C(O)Cn1cc(Nc2ncc(Cl)c(NCc3cc(F)cc(C(F)(F)F)c3)n2)cn1 [Example I-275]
1 to 10 | 0.1 to 1 |  | OCCn1cc(Nc2ncc(Cl)c(NCc3c(F)cccc3-c3cn[nH]c3)n2)cn1 [Example I-265]
1 to 10 | 0.1 to 1 |  | COc1cccc(CNc2nc(Nc3cnn(CC(=O)N(C)C)c3)ncc2Cl)c1 [Example I-244]
1 to 10 | 0.01 to 0.1 |  | COc1cc(F)c(CNc2nc(Nc3cnn(C)c3)ncc2C)c(F)c1 [Example I-314]
1 to 10 | 0.1 to 1 |  | CNC(=O)Cn1cc(Nc2ncc(Cl)c(NCc3cccc(OCC#N)c3)n2)cn1 [Example I-364]
1 to 10 | ≤ 0.01 |  | Cc1cnc(Nc2cnn(CC(=O)N3CCOC(C)(C)C3)c2)nc1NCc1c(F)cc(F)cc1F [Example I-34]
0.1 to 1 | 0.01 to 0.1 |  | Cn1cc(Nc2ncc(Cl)c(NCc3cc(S(C)(=O)=O)ccc3F)n2)cn1 [Example I-99]
1 to 10 | ≤ 0.01 |  | Cc1cccc(F)c1CNc1ccnc(Nc2cnn(CC(=O)N[C@@H](C)CO)c2)n1 [Example I-156]
0.1 to 1 | 0.01 to 0.1 |  | CS(=O)(=O)c1ccc(F)cc1CNc1nc(Nc2cnn(CC(=O)NC3CC3)c2)ncc1Cl [Example I-74]
0.01 to 0.1 | 0.01 to 0.1 |  | Cc1cnc(Nc2cnn(CC(=O)N3CCOCC3)c2)nc1NCc1cc(F)cc(F)c1 [Example I-348]
